Assay results reported in patent publication US10065965B2, “Imidazo[1,2-B][1,2,4]triazine derivatives as antiparasitic agents” (GlaxoSmithKline Intellectual Property Development Limited, priority 2015, dated 2018).
≈ marks a conversion by molar mass, not a printed value.

What was measured:
[1] = Assay 4 solubility assay, ChemiLuminescent Nitrogen Detection (CLND); format: physicochemical; settings: phosphate buffered saline, pH 7.4, aqueous buffer, kinetic from dmso stock, pH 7.4 PBS, from 10 mM DMSO stock, 1 h at room temperature
Protocol: A 10 mM DMSO stock solution of the compound was prepared. Solvents and Buffers Organic solvents of HPLC grade were used. Ultra pure water (Milli-Q grade) was used. Buffers were prepared with ultra pure water and filtered using 0.45μ cameo filters. Aqueous Buffer Solution: Phosphate Buffer Saline (PBS) @ pH 7.4 was prepared from Sigma dry powder packs, P-3813. Each one was diluted to 1 liter with deionised water. The pH was checked before the solution was used II. Procedures. • a) DMSO concentration was measured. DMSO blanks and ondansetron and caffeine standards were added to the plate (column 12, A, B, C, & D for the blanks and E, F, G, & H for the standards). Plates were covered with foil. When the UV and CLND detectors baselines appeared to be stable, the CLND was zeroed. • b) Once DMSO concentration measurements were complete, a filtration plate was prepared from each parent plate by diluting 5 μl of the 10 mM DMSO stock solution to […] with pH7.4 PBS. • c) After the plates were prepared, they were covered with a plate lid and left to incubate for 1 h at room temperature. • d) Sample was filtered using MILLIPORE MultiScreen Solubility (MSSLBPC10) Filtration Plates, to NUNC V well plates. The filter plate was removed and the NUNC plate was sealed with a power seal plate seal. • e) HPLC/CLND instruments were set up and left to equilibrate. Mobile phases (MeOH:H2O 1:1, flow rate: 0.2 ml/min, sensitivity z10, Gain High). The samples were run. • f) The assay curve fit was done by linear regression and solubility values were reported in μM.

[2] = Assay 5 Leishmania donovani intracellular assay, cytotoxicity against THP-1 cells; format: cell-based; settings: human, total number of THP-1 cells, minimum threshold 4.3, read-out: cytotoxicity against THP-1 cells, pEC50 value (converted)
Protocol: Compounds were dispensed into black 384-well assay plates (Greiner) by acoustic dispensing (LabCyte ECHO). For potency determinations, eleven-point, one in three dilution curves were generated, with a top concentration of 50 μM. THP-1 human monocytes cells were dispensed in T225 tissue culture flasks and differentiated using 30 nM of PMA, after 24 hours they were infected overnight using Leishmania donovani expressing Green Fluorescent Protein (eGFP) amastigotes in the same T225 tissue culture flasks at a multiplicity of infection of 10. Next, any remaining free amastigotes were washed away with PBS and the infected THP-1 cells were harvested by trypsinisation. The infected cells were then plated into 384-well plates containing the compounds to be tested, at 3000 cells per well in RPMI media with 2% FBS and 25 mM Sodium bicarbonate. After 96 h incubation at 37° C. in presence of 5% CO2, the plates were fixed with 4% formaldehyde for 30 minutes, washed with PBS and stained with 0.1 mg/mL of DAPI for 30 minutes and washed again with PBS. The plates were imaged on a Perkin Elmer Opera high-content imaging system using a 20× air objective with two expositions, one for DAPI stain and other for eGFP. Images were analysed using the Acapella building blocks system (Perkin Elmer). The image analysis algorithm first identified the THP-1 nuclei followed by demarcation of the cytoplasm and identification of intracellular amastigotes. This algorithm reported mean number of parasites per THP-1 cell, the percentage of infected THP-1 cells and the total number of THP-1 cells.

Trypanosoma cruzi [3] = assay: Assay 6 Trypanosoma cruzi intracellular assay (infected H9C2 cells); format: cell-based; settings: H9c2, in Rattus norvegicus, 72 h, infected H9C2 rat cardiomyocytes, read-out: pEC50 value against Trypanosoma cruzi (converted)
Protocol: Compounds were dispensed into black 384-well assay plates (Greiner) by acoustic dispensing (LabCyte ECHO). For potency determinations, eleven-point, one in three dilution curves were generated, with a top concentration of 50 μM. H9C2 rat cardiomyocytes cells were dispensed in T225 tissue culture flasks and after 4 hours they were infected during 18 hours with T. cruzi trypomastigotes in the same T225 tissue culture flasks at a multiplicity of infection of 1. Next, any remaining free trypomastigotes were washed away with PBS and the infected H9C2 cells were harvested by trypsinisation. The infected H9C2 cells were then plated into 384-well plates containing the compounds to be tested, at 2500 cells per well in DMEM media with 2% FBS, 1% Penicillin/Streptomocin, 2 mM L-Glutamine, 1 mM Na Pyruvate and 25 mM HEPES. After 72 h incubation at 37° C. in presence of 5% CO2, the plates were fixed and stained with 4% formaldehyde and 2 μM Draq5 for 3 hours at room temperature. The plates were imaged on a Perkin Elmer Opera high-content imaging system using a 20× air objective. Images were analysed using the Acapella building blocks system (Perkin Elmer). The image analysis algorithm first identified the H9C2 nuclei followed by demarcation of the cytoplasm and identification of intracellular amastigotes. This algorithm reported mean number of parasites per H9C2 cell, the percentage of infected H9C2 cells and the total number of H9C2 cells.

Trypanosoma cruzi [4] = assay: Assay 2 Trypanosoma cruzi intracellular assay (infected Vero cells); format: cell-based; settings: 72 h, read-out: pEC50 value against Trypanosoma cruzi (converted)
Protocol: Compounds were dispensed into black 384-well assay plates (Corning) by acoustic dispensing (LabCyte ECHO). For potency determinations, ten-point one in three dilution curves were generated, with a top concentration of 50 μM. Vero cells were infected overnight with T. cruzi trypomastigotes in T225 tissue culture flasks at a multiplicity of infection of 5. Next, any remaining free trypomastigotes were washed away with serum free MEM media and the infected Vero cells were harvested by trypsinisation. The infected Vero cells were then plated into 384-well plates containing the compounds to be tested, at 4000 cells per well in MEM media with 1% FCS. After 72 h incubation at 37° C. in presence of 5% CO2, the plates were fixed with 4% formaldehyde for 20 minutes at room temperature and stained with 5 μg/ml Hoechst 33342. The plates were imaged on a Perkin Elmer Operetta high-content imaging system using a 20× objective. Images were analysed using the Columbus system (Perkin Elmer). The image analysis algorithm first identified the Vero nuclei followed by demarcation of the cytoplasm and identification of intracellular amastigotes. This algorithm reported mean number of parasites per Vero cell and total number of Vero cells.

Leishmania donovani = assay: Assay 1 intramacrophage Leishmania donovani assay (potency readout); format: cell-based; settings: amastigotes in PMA-treated THP-1 macrophages, 96 h, average number of amastigotes per cell, minimum threshold 4.3, read-out: pEC50 value against Leishmania donovani (converted)
Protocol: The intramacrophage Leishmania assay was performed using a modified version of the method described in De Rycker et al. (Antimicrob Agents Chemother. 2013 July; 57(7):2913-22. Comparison of a high-throughput high-content intracellular Leishmania donovani assay with an axenic amastigote assay. De Rycker M, Hallyburton I, Thomas J, Campbell L, Wyllie S, Joshi D, Cameron S, Gilbert I H, Wyatt P G, Frearson J A, Fairlamb A H, Gray D W.). Procedure: 350 nl of compound was pre-dispensed into 384 well sterile intermediary plates. For single point screening, amphotericin B was added to all wells of column 24 as a positive control (final concentration 2 μM) and DMSO to column 23. For potency determinations, ten-point, one in three dilution curves were created with the highest concentration being 50 μM and on each plate a control curve of amphotericin B was included. Controls were as follows: columns 11 and 12: DMSO, columns 23 and 24: amphotericin B (final concentration 2 μM). To the intermediary plates, 35 μl of THP-1 media was added and plates were shaken for >5 min to ensure complete mixing. THP-1 cells (8,000 per well, 50 μl) were plated into black clear-bottom 384 well plates (Corning) in presence of 20 nM PMA. After 20 min at RT, the plates were incubated at 37° C. under 5% CO2 in a humidified incubator for 75 h. The cells were then washed with […] sterile phosphate buffered saline (PBS) supplemented with 1 mM CaCl2, 0.5 mM MgCl2, 0.1% (w/v) bovine serum albumin (PBS-A) and amastigotes were added to all wells at a multiplicity of infection of 5 (40,000 amastigotes per well). After 40 min at RT, plates were returned to the incubator. Amastigotes were incubated in the presence of THP-1 macrophages for 16 h. Any remaining extracellular amastigotes were subsequently removed with an overflow wash of 1 mL PBS-A per well (wash buffer is being aspirated from the top of the well as it is being dispensed) followed by addition of 25 μl of the compound pre-dilutions using a Fluidx Ipette-pro pipetting station. The final dilution of each compound was 200-fold. Plates were incubated for 96 h and then washed (250 μl PBS-A) and fixed (4% (v/v) formaldehyde-PBS, 30 min, RT). After fixation, the wells were washed with 250 μl PBS, stained (10 μg/mL DAPI, 0.4 μg mL-1 HCS Cellmask Deep Red in PBS+0.1% (v/v) Triton X-100, 30 min, RT) and washed with 250 μl PBS. Finally, PBS+0.05% (v/v) thimerosal was added to the wells, the plates were sealed and imaged on a high-content microscope (GE IN Cell 2000) using a 10× objective. Image analysis was carried out with GE IN Cell Analyzer 1000 Workstation using the “Multi Target Analysis” module. Settings for segmentation were as follows: nuclei: minimum area: 142.384 μm2, sensitivity: 81, method: top-hat; cells: characteristic area: 2500 μm2, sensitivity: 60, method: multiscale top-hat; organelles (amastigotes): granule size 1-3, 3 scales, sensitivity: 90, detection in entire cell. For each well, i) THP-1 cell count (cytotoxicity readout) and ii) average number of amastigotes per cell (potency readout) were calculated, both in terms of pEC50 values.

Trypanosoma brucei = assay: Assay 3 Trypanosoma brucei cell growth inhibition assay; format: cell-based; settings: T. b. brucei BSF427, 69 h + 4 h resazurin, maximum threshold 8.0, read-out: pEC50 value against Trypanosoma brucei (converted)
Protocol: Measurement of the ability of the compounds to inhibit trypanosome (T. b. brucei, BSF427, VSG118) cell growth was performed using a modification of the cell viability assay previously described by Raz et al. (Raz B.; Iten M.; Grether-Buhler Y.; Kaminski R.; Brun R. The Alamar Blue assay to determine drug sensitivity of African trypanosomes (T. b. rhodesiense and T. b. gambiense) in vitro. Acta Trop. 1997, 68, 139-147). Compounds were dissolved in DMSO at a top concentration of 10 mM and serially diluted in half log steps to achieve a range of final assay concentrations of 50 μM to 0.5 nM. Compound at each concentration (200-fold final) was added to clear 96-well tissue culture plates in a volume of 1 μL. Then 2000 cells per well in relevant growth medium (HMI-9T for T. brucei, a modification of HMI-9 as described by Hurumi et al. (Hirumi H.; Hirumi K. Continuous cultivation of Trypanosoma brucei blood stream forms in a medium containing a low concentration of serum-protein without feeder cell-layers. J. Parasitol. 1989, 75, 985-989.) where 0.2 mM 2-mercaptoethanol was replaced with 0.056 mM thiolglycerol, and MEM with 10% FBS for MRC5) were then added to columns 1-11 of the plates in a volume of 199 μL. To column 12, 200 μL of medium was added to provide a no cells control. Plates were then incubated at 37° C. in an atmosphere of 5% CO2 for 69 h, before the addition of 20 μL of 500 μM rezasurin solution, and a further incubation period of 4 h. Plates were then read on a BioTek flx800 fluorescent plate reader, and percentage inhibition was compared to the maximum and minimum assay controls. Concentration effect curves were fitted using nonlinear regression using XLFit 4.2 and EC50 values determined.

CN(C)Cc1cccc(-c2cnc3nc(-c4cc(NC(=O)N5CCCC5)ccc4F)cn3n2)c1 [Example 41, N-(3-(2-(3-((dimethyl-amino)methyl)phenyl)imidazo[1,2-b][1,2,4]triazin-6-yl)-4-fluorophenyl)pyrrolidine-1-carboxamide]
solubility at 1 h [1]: 100 to 416 µM (≈ 46 to 191 µg/mL)
EC50 at 96 h [2]: 2510 to 10000 nM
EC50 (Trypanosoma cruzi [3]): 5.01 to 631 nM

CNCc1cccc(-c2cnc3nc(-c4cc(NC(=O)N5CCCC5)ccc4F)cn3n2)c1 [Example 44, N-(4-fluoro-3-(2-(3-((methylamino)methyl)phenyl)imidazo[1,2-b] [1,2,4]triazin-6-yl)phenyl) pyrrolidine-1-carboxamide]
solubility at 1 h [1]: 100 to 416 µM (≈ 44.6 to 185 µg/mL)
EC50 at 96 h [2]: 2510 to 10000 nM
EC50 (Trypanosoma cruzi [3]): 5.01 to 631 nM

Cc1nn(C)cc1S(=O)(=O)Nc1ccc(F)c(-c2cn3nc(N4CCOCC4)cnc3n2)c1 [Example 34, N-(4-fluoro-3-(2-morpholinoimidazo [1,2-b][1,2,4]triazin-6-yl)phenyl)-1,3-dimethyl-1H-pyrazole-4-sulfonamide]
EC50 (Trypanosoma cruzi [4]): 25100 nM
EC50 (Leishmania donovani): > 50100 nM
EC50 (Trypanosoma cruzi [3]): 10000 to 39800 nM

CC(C)OC(=O)Nc1ccc(F)c(-c2cn3nc(N4CCOCC4)cnc3n2)c1 [Example 48, isopropyl (4-fluoro-3-(2-morpholinoimidazo[1,2-b] [1,2,4]triazin-6-yl)phenyl)carbamate]
solubility at 1 h [1]: 10 to 83 µM (≈ 4 to 33.2 µg/mL)
EC50 at 96 h [2]: 2510 to 10000 nM
EC50 (Trypanosoma cruzi [3]): 5.01 to 631 nM

Cc1noc(C)c1S(=O)(=O)Nc1ccc(F)c(-c2cn3nc(N4CCOCC4)cnc3n2)c1 [Example 53, N-(4-fluoro-3-(2-morpholinoimidazo[1,2-b] [1,2,4]triazin-6-yl)phenyl)-3,5-dimethyl-isoxazole-4-sulfonamide]
EC50 (Trypanosoma brucei): ≥ 20000 nM
EC50 (Leishmania donovani): > 50100 nM
EC50 (Trypanosoma cruzi [3]): 10000 to 39800 nM

C[C@@H]1CN(c2cnc3nc(-c4cc(NC(=O)N5CCCC5)ccc4F)cn3n2)C[C@H](C)O1 (single isomer, unassigned) [Example 6]
solubility at 1 h [1]: 10 to 83 µM (≈ 4.39 to 36.5 µg/mL)
EC50 (Trypanosoma cruzi [4]): 20 to 251 nM
EC50 (Trypanosoma cruzi [3]): 5.01 to 631 nM

CN(C)Cc1ccc(-c2cnc3nc(-c4cc(NC(=O)N5CCCC5)ccc4F)cn3n2)cc1 [Example 37, N-(3-(2-(4-((dimethyl-amino)methyl)phenyl)imidazo[1,2-b][1,2,4]triazin-6-yl)-4-fluoro-phenyl)pyrrolidine-1-carboxamide]
solubility at 1 h [1]: 10 to 83 µM (≈ 4.6 to 38.1 µg/mL)
EC50 at 96 h [2]: 2510 to 10000 nM
EC50 (Trypanosoma cruzi [3]): 5.01 to 631 nM
